Assay results published in the NIST ThermoML archive (doi:10.1021/je3007666).

Experiment: relative permittivity at zero frequency (dimensionless); xn = mol fraction of the nth substance listed
Conditions: 100 kPa, Liquid, Dielectrometer

CC(C)CO [2-methyl-1-propanol] + CCCCO
relative permittivity at zero frequency
Conditions	288.15 K	293.15 K	298.15 K	303.15 K	308.15 K
x1 = 0.0505	19.03	18.3	17.59	16.92	16.26
x1 = 0.1011	19.05	18.31	17.61	16.93	16.27
x1 = 0.1496	19.06	18.33	17.62	16.94	16.28
x1 = 0.2001	19.08	18.34	17.63	16.95	16.29
x1 = 0.2488	19.1	18.36	17.65	16.97	16.31
x1 = 0.3011	19.12	18.38	17.66	16.98	16.32
x1 = 0.3497	19.14	18.4	17.68	16.99	16.33
x1 = 0.399	19.16	18.41	17.7	17.01	16.34
x1 = 0.4511	19.18	18.43	17.71	17.02	16.36
x1 = 0.5021	19.21	18.44	17.73	17.04	16.37
x1 = 0.5489	19.23	18.46	17.75	17.06	16.39
x1 = 0.6004	19.26	18.5	17.77	17.07	16.4
x1 = 0.6488	19.28	18.52	17.79	17.09	16.42
x1 = 0.6975	19.31	18.55	17.81	17.11	16.43
x1 = 0.751	19.34	18.57	17.83	17.13	16.45
x1 = 0.8004	19.37	18.6	17.86	17.15	16.46
x1 = 0.848	19.4	18.62	17.88	17.17	16.48
x1 = 0.8995	19.43	18.65	17.9	17.19	16.5
x1 = 0.9506	19.47	18.68	17.93	17.21	16.52
x1 = 1	19.51	18.71	17.96	17.23	16.53

CC(C)(C)O [2-methylpropan-2-ol] + CCC(C)O
relative permittivity at zero frequency
Conditions	288.15 K	293.15 K	298.15 K	303.15 K	308.15 K
x1 = 0.0511	18.35	17.39	16.47	15.62	14.8
x1 = 0.1003	18.24	17.25	16.35	15.46	14.64
x1 = 0.1512	18.11	17.13	16.22	15.31	14.47
x1 = 0.199	17.97	16.98	16.06	15.15	14.28
x1 = 0.2498	17.85	16.83	15.92	14.98	14.1
x1 = 0.3007	17.71	16.67	15.77	14.79	13.92
x1 = 0.35	17.55	16.54	15.6	14.62	13.75
x1 = 0.3997	17.42	16.36	15.44	14.44	13.54
x1 = 0.4502	17.25	16.19	15.27	14.25	13.34
x1 = 0.5011	17.09	16	15.09	14.05	13.14
x1 = 0.5497	16.89	15.83	14.9	13.84	12.92
x1 = 0.6007	16.7	15.64	14.72	13.62	12.7
x1 = 0.6511	16.5	15.42	14.5	13.41	12.47
x1 = 0.701	16.28	15.17	14.26	13.17	12.23
x1 = 0.7497	16.03	14.93	14.03	12.89	11.96
x1 = 0.8005	15.76	14.68	13.78	12.63	11.68
x1 = 0.8488	15.49	14.39	13.5	12.32	11.39
x1 = 0.9003	15.19	14.07	13.18	12.01	11.07
x1 = 0.9496	14.84	13.72	12.84	11.68	10.74
x1 = 1	14.49	13.38	12.49	11.34	10.4
